In publication PMC5218480 (PLoS ONE, 2017):

System: MV-4-11 cells
Experiment: Gene expression microarray analysis (Affymetrix PrimeView) and GSEA
Format: cell-based, human
Set-up: RFU PODN (11730768_x_at) / Fold change /veh PODN (11730768_x_at) / RFU LINC00158 (11744669_a_at) / Fold change /veh LINC00158 (11744669_a_at) / RFU DUSP10 (11751237_a_at) / Fold change /veh DUSP10 (11751237_a_at) / RFU ID3 (11757404_x_at) / Fold change /veh ID3 (11757404_x_at) / RFU PLEKHG5 (11737974_s_at) / Fold change /veh PLEKHG5 (11737974_s_at) / RFU LRRC4B (11730491_at) / Fold change /veh LRRC4B (11730491_at) / RFU GIMAP4 (11747438_a_at) / Fold change /veh GIMAP4 (11747438_a_at) / RFU KRT8 (11758183_x_at) / Fold change /veh KRT8 (11758183_x_at) / RFU CNN1 (11734310_a_at) / Fold change /veh CNN1 (11734310_a_at) / RFU VPS37D (11726825_at) / Fold change /veh VPS37D (11726825_at) / RFU C10orf10 (11716522_x_at) / Fold change /veh C10orf10 (11716522_x_at) / RFU KIR2DL2 /// KIR2DL4 /// KIR2DL5A /// KIR2DL5B /// KIR2DS1 /// KIR2DS2 /// KIR2DS3 /// KIR2DS4 /// KIR3DL3 /// KIR3DL3 /// KIR3DS1 (11738374_at) / Fold change /veh KIR2DL2 /// KIR2DL4 /// KIR2DL5A /// KIR2DL5B /// KIR2DS1 /// KIR2DS2 /// KIR2DS3 /// KIR2DS4 /// KIR3DL3 /// KIR3DL3 /// KIR3DS1 (11738374_at) / RFU C1QL1 (11718748_at) / Fold change /veh C1QL1 (11718748_at) / RFU TMPRSS4 (11747572_a_at) / Fold change /veh TMPRSS4 (11747572_a_at) / RFU HAMP (11756126_x_at) / Fold change /veh HAMP (11756126_x_at) / RFU RNFT2 (11725882_a_at) / Fold change /veh RNFT2 (11725882_a_at) / RFU NR4A2 (11747474_a_at) / Fold change /veh NR4A2 (11747474_a_at) / RFU ABCC12 (11746883_a_at) / Fold change /veh ABCC12 (11746883_a_at) / RFU TMEM136 (11760407_x_at) / Fold change /veh TMEM136 (11760407_x_at) / RFU CLDN22 /// WWC2 (11732394_at) / Fold change /veh CLDN22 /// WWC2 (11732394_at) / RFU HLA-DPB1 (11760878_x_at) / Fold change /veh HLA-DPB1 (11760878_x_at) / RFU SPINT1 (11716480_a_at) / Fold change /veh SPINT1 (11716480_a_at) / RFU GAP43 (11754022_s_at) / Fold change /veh GAP43 (11754022_s_at) / RFU A4GNT (11735810_at) / Fold change /veh A4GNT (11735810_at) / RFU PRB3 (11715151_x_at) / Fold change /veh PRB3 (11715151_x_at) / RFU TUBB4B (11761932_at) / Fold change /veh TUBB4B (11761932_at) / RFU CAPN14 (11732068_a_at) / Fold change /veh CAPN14 (11732068_a_at) / RFU TMCC2 (11721928_a_at) / Fold change /veh TMCC2 (11721928_a_at) / RFU IRGQ (11745062_a_at) / Fold change /veh IRGQ (11745062_a_at) / RFU FAM174B (11720279_a_at) / Fold change /veh FAM174B (11720279_a_at) / RFU TMPRSS4 (11748680_a_at) / Fold change /veh TMPRSS4 (11748680_a_at) / RFU FAM212B (11763350_a_at) / Fold change /veh FAM212B (11763350_a_at) / RFU PLEKHG5 (11743358_a_at) / Fold change /veh PLEKHG5 (11743358_a_at) / RFU ZSCAN30 (11745921_a_at) / Fold change /veh ZSCAN30 (11745921_a_at) / RFU CMKLR1 (11741424_a_at) / Fold change /veh CMKLR1 (11741424_a_at) / RFU LOC101060620 /// MAPK8IP1 (11723275_at) / Fold change /veh LOC101060620 /// MAPK8IP1 (11723275_at) / RFU SPTSSB (11747773_x_at) / Fold change /veh SPTSSB (11747773_x_at) / RFU PRSS12 (11739890_at) / Fold change /veh PRSS12 (11739890_at) / RFU BIN1 (11741810_x_at) / Fold change /veh BIN1 (11741810_x_at) / RFU WNT11 (11732464_a_at) / Fold change /veh WNT11 (11732464_a_at) / RFU C10orf10 (11716521_a_at) / Fold change /veh C10orf10 (11716521_a_at) / RFU C5orf56 (11738089_at) / Fold change /veh C5orf56 (11738089_at) / RFU CYB561 (11721691_x_at) / Fold change /veh CYB561 (11721691_x_at) / RFU ANKRD19P (11752326_a_at) / Fold change /veh ANKRD19P (11752326_a_at) / RFU OR2T12 /// OR2T33 /// OR2T8 (11738714_s_at) / Fold change /veh OR2T12 /// OR2T33 /// OR2T8 (11738714_s_at) / RFU VCAN (11748164_a_at) / Fold change /veh VCAN (11748164_a_at) / RFU JSRP1 (11732532_at) / Fold change /veh JSRP1 (11732532_at) / RFU KRTAP10-11 (11738290_x_at) / Fold change /veh KRTAP10-11 (11738290_x_at) / RFU MYO3A (11730013_a_at) / Fold change /veh MYO3A (11730013_a_at) / RFU EBF3 (11725865_a_at) / Fold change /veh EBF3 (11725865_a_at) / RFU CAMK2N1 (11719241_x_at) / Fold change /veh CAMK2N1 (11719241_x_at) / RFU C5orf56 (11738088_a_at) / Fold change /veh C5orf56 (11738088_a_at) / RFU OLFML3 (11715873_a_at) / Fold change /veh OLFML3 (11715873_a_at) / RFU LOC100653217 /// NTM (11731650_a_at) / Fold change /veh LOC100653217 /// NTM (11731650_a_at) / RFU MAPK11 (11762145_a_at) / Fold change /veh MAPK11 (11762145_a_at) / RFU FIZ1 (11724087_x_at) / Fold change /veh FIZ1 (11724087_x_at) / RFU OASL (11726364_x_at) / Fold change /veh OASL (11726364_x_at) / RFU SOX15 (11748057_x_at) / Fold change /veh SOX15 (11748057_x_at) / RFU CD79A (11719716_a_at) / Fold change /veh CD79A (11719716_a_at) / RFU HIST1H1D (11736915_at) / Fold change /veh HIST1H1D (11736915_at) / RFU CASKIN2 (11723855_a_at) / Fold change /veh CASKIN2 (11723855_a_at) / RFU LOC730098 (11760151_x_at) / Fold change /veh LOC730098 (11760151_x_at) / RFU OR4N2 (11742367_at) / Fold change /veh OR4N2 (11742367_at) / RFU PRRT2 (11749266_a_at) / Fold change /veh PRRT2 (11749266_a_at) / RFU SNX32 (11753110_a_at) / Fold change /veh SNX32 (11753110_a_at) / RFU CDHR5 (11726645_a_at) / Fold change /veh CDHR5 (11726645_a_at) / RFU RCAN1 (11760418_a_at) / Fold change /veh RCAN1 (11760418_a_at) / RFU FAM167A (11723789_a_at) / Fold change /veh FAM167A (11723789_a_at) / RFU FAM26E (11764081_at) / Fold change /veh FAM26E (11764081_at) / RFU ISYNA1 (11749810_s_at) / Fold change /veh ISYNA1 (11749810_s_at) / RFU ACY1 (11761880_at) / Fold change /veh ACY1 (11761880_at) / RFU 11764098_at / Fold change /veh 11764098_at / RFU SAMD14 (11745864_x_at) / Fold change /veh SAMD14 (11745864_x_at) / RFU NPB (11741838_a_at) / Fold change /veh NPB (11741838_a_at) / RFU TMPRSS6 (11731388_a_at) / Fold change /veh TMPRSS6 (11731388_a_at) / RFU KRTAP10-2 (11738614_at) / Fold change /veh KRTAP10-2 (11738614_at) / RFU ARHGAP8 /// PRR5-ARHGAP8 (11727945_x_at) / Fold change /veh ARHGAP8 /// PRR5-ARHGAP8 (11727945_x_at) / RFU KRTAP5-7 /// NADSYN1 (11734609_at) / Fold change /veh KRTAP5-7 /// NADSYN1 (11734609_at) / RFU RASL12 (11751679_a_at) / Fold change /veh RASL12 (11751679_a_at) / RFU CDKN2B (11736163_a_at) / Fold change /veh CDKN2B (11736163_a_at) / RFU PRF1 (11729649_at) / Fold change /veh PRF1 (11729649_at) / RFU, ZNF638 /// ZNF638-IT1 / Fold change vs veh, ZNF638 /// ZNF638-IT1 / RFU, PANK3 / Fold change vs veh, PANK3 / RFU, SH3YL1 / Fold change vs veh, SH3YL1 / RFU, ZEB2 / Fold change vs veh, ZEB2 / RFU, NRIP1 / Fold change vs veh, NRIP1 / RFU, PTTG1IP / Fold change vs veh, PTTG1IP / RFU, CAPN2 / Fold change vs veh, CAPN2 / RFU, MED14 / Fold change vs veh, MED14 / RFU, SNORA58 / Fold change vs veh, SNORA58 / RFU, C1orf63 / Fold change vs veh, C1orf63 / RFU, LRRFIP1 / Fold change vs veh, LRRFIP1 / RFU, NDUFAF7 / Fold change vs veh, NDUFAF7 / RFU, SLC12A2 / Fold change vs veh, SLC12A2 / RFU, IBTK / Fold change vs veh, IBTK / RFU, ESF1 / Fold change vs veh, ESF1 / Fold change vs veh, TMEM50B / RFU, TAOK1 / Fold change vs veh, TAOK1 / RFU, ACBD3 / Fold change vs veh, ACBD3 / RFU, TMA16 / Fold change vs veh, TMA16 / RFU, RWDD3 / Fold change vs veh, RWDD3 / RFU, BCAT1 / Fold change vs veh, BCAT1 / RFU, EDEM3 / Fold change vs veh, EDEM3 / RFU, TMEM33 / Fold change vs veh, TMEM33 / RFU, WDR75 / Fold change vs veh, WDR75 / RFU, AHCTF1 / Fold change vs veh, AHCTF1 / RFU, TFRC / Fold change vs veh, TFRC / RFU, ZDHHC17 / Fold change vs veh, ZDHHC17 / RFU, NOM1 / Fold change vs veh, NOM1 / RFU, ARL8B / Fold change vs veh, ARL8B / RFU, ZBTB11 / Fold change vs veh, ZBTB11 / RFU, TAMM41 / Fold change vs veh, TAMM41 / RFU, KIAA1704 /// LOC100996395 / Fold change vs veh, KIAA1704 /// LOC100996395 / RFU, ING1 / Fold change vs veh, ING1 / RFU, TRMT61B / Fold change vs veh, TRMT61B / RFU, FUBP3 / Fold change vs veh, FUBP3 / RFU, TP53 / Fold change vs veh, TP53 / RFU, TNKS2 / Fold change vs veh, TNKS2 / RFU, ZFP14 / Fold change vs veh, ZFP14 / RFU, ACTR2 / Fold change vs veh, ACTR2 / RFU, PPP3R1 / Fold change vs veh, PPP3R1 / RFU, PIK3R1 / Fold change vs veh, PIK3R1 / RFU, HNRNPA1 / Fold change vs veh, HNRNPA1 / RFU, RNF170 / Fold change vs veh, RNF170 / RFU, ZNF28 / Fold change vs veh, ZNF28 / RFU, RNGTT / Fold change vs veh, RNGTT / RFU, OGT / Fold change vs veh, OGT / RFU, BRD1 / Fold change vs veh, BRD1 / RFU, MARS / Fold change vs veh, MARS / RFU, ZNF655 / Fold change vs veh, ZNF655 / RFU, FAHD1 / Fold change vs veh, FAHD1 / RFU, BDP1 / Fold change vs veh, BDP1 / RFU, LRRCC1 / Fold change vs veh, LRRCC1 / RFU, ARID1A / Fold change vs veh, ARID1A / RFU, ZNF146 / Fold change vs veh, ZNF146 / RFU, ZNF330 / Fold change vs veh, ZNF330 / RFU, GPN3 / Fold change vs veh, GPN3 / RFU, C9orf123 / Fold change vs veh, C9orf123 / RFU, N4BP2L2 / Fold change vs veh, N4BP2L2 / RFU, ARFIP1 / Fold change vs veh, ARFIP1 / RFU, FAM179B / Fold change vs veh, FAM179B / RFU, BCL10 / Fold change vs veh, BCL10 / RFU, UHRF1BP1L / Fold change vs veh, UHRF1BP1L / RFU, BET1 / Fold change vs veh, BET1 / RFU, CNOT2 / Fold change vs veh, CNOT2 / RFU, ZNF268 / Fold change vs veh, ZNF268 / Fold change vs veh, ZNF507 / RFU, DGCR2 / Fold change vs veh, DGCR2 / RFU, WDSUB1 / Fold change vs veh, WDSUB1 / Fold change vs veh, HSP90B1 /// MIR3652 / RFU, ADSS / Fold change vs veh, ADSS / RFU, GK / Fold change vs veh, GK / RFU, ZNF148 / Fold change vs veh, ZNF148 / RFU, TAF9 / Fold change vs veh, TAF9 / RFU, SLC1A5 / Fold change vs veh, SLC1A5 / RFU, SLMO2 / Fold change vs veh, SLMO2 / RFU, ABCC4 / Fold change vs veh, ABCC4 / RFU, LOC101060439 /// RAP1B / Fold change vs veh, LOC101060439 /// RAP1B / RFU, RFX7 / Fold change vs veh, RFX7 / RFU, GTPBP10 / Fold change vs veh, GTPBP10 / RFU, CNEP1R1 / Fold change vs veh, CNEP1R1 / RFU, BIVM-ERCC5 /// ERCC5 / Fold change vs veh, BIVM-ERCC5 /// ERCC5 / RFU, ILF3 / Fold change vs veh, ILF3 / RFU 11762660_at / Fold change /veh 11762660_at / RFU VCAN (11757783_s_at) / Fold change /veh VCAN (11757783_s_at) / RFU DDX43 (11728927_at) / Fold change /veh DDX43 (11728927_at) / RFU KRT8 (11758188_x_at) / Fold change /veh KRT8 (11758188_x_at) / RFU NKD1 (11759106_at) / Fold change /veh NKD1 (11759106_at) / RFU SRD5A1 (11742802_a_at) / Fold change /veh SRD5A1 (11742802_a_at) / RFU TPSAB1 /// TPSB2 (11721975_s_at) / Fold change /veh TPSAB1 /// TPSB2 (11721975_s_at) / RFU GSTM3 (11746129_a_at) / Fold change /veh GSTM3 (11746129_a_at) / RFU IL23R (11737362_x_at) / Fold change /veh IL23R (11737362_x_at) / RFU TMEM51 (11727254_a_at) / Fold change /veh TMEM51 (11727254_a_at) / RFU PIWIL2 (11732686_x_at) / Fold change /veh PIWIL2 (11732686_x_at) / RFU ORM1 (11744905_x_at) / Fold change /veh ORM1 (11744905_x_at) / RFU CCDC152 (11743942_at) / Fold change /veh CCDC152 (11743942_at) / RFU ECM1 (11717891_a_at) / Fold change /veh ECM1 (11717891_a_at) / RFU IL23R (11748794_a_at) / Fold change /veh IL23R (11748794_a_at) / RFU TNFAIP8L3 (11732012_x_at) / Fold change /veh TNFAIP8L3 (11732012_x_at) / RFU MBOAT4 (11741988_at) / Fold change /veh MBOAT4 (11741988_at) / RFU 11764193_at / Fold change /veh 11764193_at / RFU TMEM53 (11763286_at) / Fold change /veh TMEM53 (11763286_at) / RFU MAGEB2 (11727129_at) / Fold change /veh MAGEB2 (11727129_at) / RFU TMEM200A (11744735_a_at) / Fold change /veh TMEM200A (11744735_a_at) / RFU CCDC152 (11751479_a_at) / Fold change /veh CCDC152 (11751479_a_at) / RFU FAM211A (11726209_a_at) / Fold change /veh FAM211A (11726209_a_at) / RFU RGS16 (11746705_a_at) / Fold change /veh RGS16 (11746705_a_at) / RFU VCAN (11755009_s_at) / Fold change /veh VCAN (11755009_s_at) / RFU RHOB (11743442_s_at) / Fold change /veh RHOB (11743442_s_at) / RFU RGS16 (11720943_a_at) / Fold change /veh RGS16 (11720943_a_at) / RFU RGS16 (11720944_at) / Fold change /veh RGS16 (11720944_at) / RFU, VPS4B / Fold change vs veh, VPS4B / RFU, CREB1 / Fold change vs veh, CREB1 / RFU, DNAJC13 / Fold change vs veh, DNAJC13 / RFU, GNAQ / Fold change vs veh, GNAQ / RFU, CDK5R1 / Fold change vs veh, CDK5R1 / RFU, ZRANB3 / Fold change vs veh, ZRANB3 / RFU, CUL4A / Fold change vs veh, CUL4A / RFU, CCNY / Fold change vs veh, CCNY / RFU, UFL1 / Fold change vs veh, UFL1 / RFU, COG3 / Fold change vs veh, COG3 / RFU, DIAPH2 / Fold change vs veh, DIAPH2 / RFU, SKA2 / Fold change vs veh, SKA2 / RFU, AFF3 / Fold change vs veh, AFF3 / RFU, LMF1 / Fold change vs veh, LMF1 / RFU, IPO11 / Fold change vs veh, IPO11 / RFU, DFFB / Fold change vs veh, DFFB / RFU, FOXP1 / Fold change vs veh, FOXP1 / RFU, CARD8 / Fold change vs veh, CARD8 / RFU, STRN3 / Fold change vs veh, STRN3 / RFU, ADK / Fold change vs veh, ADK / RFU, RASSF2 / Fold change vs veh, RASSF2 / RFU, WIPF1 / Fold change vs veh, WIPF1 / RFU, LARP1B / Fold change vs veh, LARP1B / RFU, RASA1 / Fold change vs veh, RASA1 / RFU, RB1 / Fold change vs veh, RB1 / RFU, PPFIA1 / Fold change vs veh, PPFIA1 / RFU, MAT2A / Fold change vs veh, MAT2A / RFU, CCT5 / Fold change vs veh, CCT5 / RFU, WDR92 / Fold change vs veh, WDR92 / RFU, CUX1 / Fold change vs veh, CUX1 / RFU, TTC7A / Fold change vs veh, TTC7A / RFU, TMEM135 / Fold change vs veh, TMEM135 / RFU, DEPTOR / Fold change vs veh, DEPTOR / RFU, CPM / Fold change vs veh, CPM / RFU, DNAJB6 / Fold change vs veh, DNAJB6 / RFU, CACNA2D3 / Fold change vs veh, CACNA2D3 / RFU, DTX4 / Fold change vs veh, DTX4 / RFU, TFCP2 / Fold change vs veh, TFCP2 / RFU, GMCL1 /// GMCL1P1 / Fold change vs veh, GMCL1 /// GMCL1P1 / RFU, AEBP2 / Fold change vs veh, AEBP2 / RFU, SNHG1 /// SNORD22 /// SNORD25 /// SNORD26 /// SNORD27 /// SNORD28 /// SNORD29 /// SNORD31 / Fold change vs veh, SNHG1 /// SNORD22 /// SNORD25 /// SNORD26 /// SNORD27 /// SNORD28 /// SNORD29 /// SNORD31 / Fold change (Aza/veh), C12orf56 (ProbeSet 11735607_a_at) / Fold change (ACY-1035/veh), C12orf56 (ProbeSet 11735607_a_at) / Fold change (Aza/veh), FGFR1OP (ProbeSet 11751329_s_at) / Fold change (ACY-1035/veh), FGFR1OP (ProbeSet 11751329_s_at) / Fold change (Aza/veh), VPS36 (ProbeSet 11739960_a_at) / Fold change (ACY-1035/veh), VPS36 (ProbeSet 11739960_a_at) / RFU SYPL1 (11715823_x_at) / Fold change /veh SYPL1 (11715823_x_at) / RFU IGFBP7 (11715501_s_at) / Fold change /veh IGFBP7 (11715501_s_at) / RFU REEP3 (11722064_at) / Fold change /veh REEP3 (11722064_at) / RFU IGLL1 (11728026_x_at) / Fold change /veh IGLL1 (11728026_x_at): dose or concentration left out as unconfirmed
Conditions: MV-4-11 cells, 48 hours

## Nc1ncn([C@@H]2O[C@H](CO)[C@@H](O)[C@H]2O)c(=O)n1 [azacitidine]
  RFU VCAN (11748164_a_at): 5.82 RFU
